# From patent US20170064966A1, “ANTIMICROBIAL COMPOSITIONS AND METHODS AND USES THEREOF” (BAR ILAN UNIVERSITY, priority 2015, published 2017)
# Changes are numbered by the printed parent chain. Names and notes keep the numbering of the source. Read-outs that look alike come from different tables or passages of the source. Non-standard residues stand in square brackets, D forms with d. No end group written: not given here.
# B1: wild-type PstS: periplasmic phosphate-binding subunit of the P. aeruginosa Pst transporter, purified from E. coli (protein)
# chain: MKLKRLMAALTFVAAGVGAASAVAAIDPALPEYQKASGVSGNLSSVGSDTLANLMTMWAEEYKRLYPNVNIQIQAAGSSTAPPALTEGTANLGPMSRKMKDVELQAFEQKYGYKPTAVPVAVDALAIFVHKDNPIKGLTMQQVDAIFSATRLCGSKQDVKTWGDLGLTGDWAKKPVQLFGRNSVSGTYGYFKEEALCKGDFRPNVNEQPGSASVVQSVSQSLNGIGYSGIGYKTASVKTVALAKKEGAAFVEDNEQNALNGTYPLSRFLYVYVNKAPNKPLDPLEAQFLKLVLSKTGQQVVVKDGYIPLPAKVAEKAIKELGL
# modifications: P.aeruginosa PstS - accession number NP_254056.1
# B2: S96E (protein)
# chain: B1 chain with S96E
# modifications: The S96E PstS mutant
# B3: E. coli PstS: PstS ortholog from E. coli, literature value (18) (protein, UniProt P0AG82 26-346, looked up)
# Phosphate-binding protein PstS: EASLTGAGATFPAPVYAKWADTYQKETGNKVNYQGIGSSGGVKQIIANTVDFGASDAPLSDEKLAQEGLFQFPTVIGGVVLAVNIPGLKSGELVLDGKTLGDIYLGKIKKWDDEAIAKLNPGLKLPSQNIAVVRRADGSGTSFVFTSYLAKVNEEWKNNVGTGSTVKWPIGLGGKGNDGIAAFVQRLPGAIGYVEYAYAKQNNLAYTKLISADGKPVSPTEENFANAAKGADWSKTFAQDLTNQKGEDAWPITSTTFILIHKDQKKPEQGTEVLKFFDWAYKTGAKQANDLDYASLPDSVVEQVRAAWKTNIKDSSGKPLY
# Key:
# PA biofilm formation = test: Static biofilm model with N′-loop derived peptides (crystal violet); conditions: for anti-biofilm activity / inhibition of PA biofilm formation: peptides 1-6 at 0.01, 0.05 and 0.1 mM, FIG. 10B
# Protocol: The static biofilm model was used to assess the ability of N′-loop derived peptides to reduce PA biofilm formation. Briefly, PA wild type bacteria were grown over night in M9 medium (20 mM NH4Cl; 12 mM Na2HPO4; 22 mM KH2PO4; 8.6 mM NaCl; 1 mM MgSO4; 1 mM CaCl2; 11 mM Dextrose) at 37 C. Following growth cells were diluted to a final concentration of 5*10^7 in M9 medium contacting 1/10 the phosphate concentration. 100 microliter of the bacterial suspension was transferred to each well of 96 wells plate. The six tested peptides were added at different concentrations 0.01, 0.05 and 0.1 mM. The plate was then incubated for 24 h at 37° C. to allow biofilm development. After incubation the medium was removed and the wells were carefully washed twice with sterile ddsH2O to remove planktonic bacteria. Next 150 microliter of 1% crystal violet (w/v) was added to each well in order to stain the biofilm cells. The stain was allowed to incubate for 15 min after which the wells were washed again with ddsH2O. The stain attached to the biofilm was then extracted by adding 200 microliter ethanol (95%). The biofilm biomass was quantified by reading the absorbance at 595nm using an ELISA plate reader.
# [1] = system: P. aeruginosa strains PAO1, PA14 and clinical isolate DK2; test: Flow cell biofilm experiment in the presence of inhibitory peptide
# Protocol: Bacterial strains (Pseudomonas aeruginosa strains PA14 and DK2) containing the plasmid pUCP-GFP inserted to bacterial cells by electroporation (pUCP18 that constitutionally expresses the GFP under the lac promoter), were inoculated from −80° C. stock into 2 mL TSB containing 300 μg/mL Carb (to maintain the pUCP-GFP plasmid) and grown overnight at 37° C. with agitation. The next day, bacteria were diluted to 0.05 OD (595 nm) in 1% TSB containing the antibiotics and loaded onto 6 channel 1μ-Slide I^0.4 Luer uncoated (Ibidi). The slide was connected to a flow cell containing fresh 1% TSB with 0.05 Mm, 0.1 mM peptides or without peptides. Fresh media flowed through the slide by a pump at 10 mL/h (2 rpm). Bacteria were grown in the slide for 48 hours at 37° C. After 48 hours, 3 representative pictures from the beginning and the middle of the slide, were taken using SP8 confocal HyD microscope (Leica). Pictures were analyzed by Imaris software (version 7.2.2).
# [2] = format: binding; conditions: P^32-labeled phosphate, pH 7.5, FIG. 3C
# [3] = measured under similar pH conditions, ref (18); read-out: phosphate binding (KD) reported for PstS orthologs; cited from earlier work
molecule,measurement,setting,value
AIDPALPE,anti-biofilm activity / inhibition of PA biofilm formation,PA biofilm formation,inhibits most effectively biofilm formation
same,anti-biofilm activity / inhibition of PA biofilm formation,PA biofilm formation; listed as peptide 3,most effective peptide
modified peptide-3: enantiomer of peptide-3 having the N-terminal Ala and C-terminal Glu residues in the D-form (SEQ ID NO. 56) ([dA]IDPALP[dE]),inhibition of PA biofilm formation,"PA biofilm formation; 0.1 millimolar modified peptide 3, FIG. 10C",efficiently inhibited biofilm formation
same,biofilm formation (biovolume),"[1]; 0.1 mM in media, 48 h, strains PAO1, PA14, DK2, FIG. 11A",significantly reduces the biofilm formation
same,"biofilm formation phenotype, confocal microscope images","[1]; strains PAO1, PA14, DK2, 48 h, FIG. 11B",changes the biofilm formation phenotype of all PA strains examined
B1,Kd,[2]; read-out: dissociation constant (KD) for PO4,840 ± 120 nM
B2,dissociation constant (KD) for PO4,[2],very weak or no binding
B3,Kd,[3],~3000 nM
